Laboratory results published in patent US20190225650A1, “PEPTIDOMIMETIC MACROCYCLES AND USE THEREOF IN REGULATING HIF1ALPHA” (AILERON THERAPEUTICS, INC., priority 2013, published 2019).
Bridge positions count the residues as written; N and C are the ends. Square brackets hold non-standard residues; d marks the D form. Peptide text beside a SMILES is read from it. S5 = C=CCCC[C@](C)(N)C(=O)O; Nle = CCCC[C@H](N)C(=O)O

System: HRE-bla ME-180 cells
Assay: Reporter gene assay (HRE-bla ME-180 HIF reporter, GeneBLAzer)
Assay type: cell-based, human
Conditions: for EC50: 24 hour normoxia
Procedure: The following reagents were used:
• DMEM+GutaMAX: (#10569044, Invitrogen) • Black clear bottom plates: (#3603, Costar) • HRE-bla-ME-180 cell line: (#K1644, Invitrogen) • Gene-Blazer reagent & protocol: (#K1096, Invitrogen) • Plate reader: Biotek Synergy 2 • Chetomin: (C9623, Sigma)
4 hours prior to experiment: HRE-bla ME-180 cells were seeded at a density of 20,000 cells/well in a volume of 180 μl in black clear bottom 96-well plates. 180 μl of assay medium was added to the cell-free control wells. Incubation was conducted at 37° C., 5% CO2 for 4 hours.
Diluted chetomin was used as a positive control. Chetomin was diluted in 100% DMSO to a 10 mM stock concentration. A 1 mM stock of chetomin was prepared in 100% DMSO. Then the 1 mM chetomin stock was serially diluted in 1:4 in 100% DMSO. Finally, 50, 12.5, 3.125, 0.78, 0.2, 0.05 μM stock of chetomin in 5% DMSO/water were prepared by adding 114 μL water+6 μL chetomin in DMSO.
Test peptides were diluted before use. The test peptides were diluted in 100% DMSO to a 10 mM stock concentration. Then each 10 mM peptide stock was diluted in 1:3 in 100% DMSO. Finally, 300, 100, 33.3, 11.1, 3.7, 1.2 μM stock of each peptide in 5% DMSO/water were prepared by adding 129.2 μL water+4 μL peptide in DMSO.
20 μl of peptide, chetomin dilution, or DMSO/water control were added to the appropriate wells of a plate to achieve 200 μL final volumes in 0.3% DMSO/media. The plate was first incubated for 18-20 hours in normoxia incubator (37° C. in humidified 5% CO2, 20% O2 atmosphere). Then the plate was transferred to hypoxia incubator for 24 hours (37° C. in humidified 5% CO2, 1% O2 atmosphere)
6× LiveBLAzer™-FRET B/G (CCF4-AM) Substrate Mixture was prepared according to CellSensor™ HRE-bla ME-180 Cell-based Assay Protocol (Invitrogen) and added into each well. Solution A (CCF4-AM) was reconstituted in DMSO to a working concentration of 1 mM, divided in aliquots, and stored at −20° C. The 6× LiveBLAzer-FRET B/G (CCF4-AM) Substrate mixture was prepared by mixing 6 μl of Solution A, 60 μl of Solution B, and 934 μl Solution C.
The plates were removed from incubator and equilibrated to RT for a few minutes. Then 20 μl of 6× Substrate mixture was added to each well. The plates were then incubated at room temperature for 3 hr in the dark and read at 409 Ex/460Em and 409Ex/530Em using the “GeneBlazer-Tungsten with export” program on the Synergy 2.
The average percentage of maximum inhibition was obtained by comparing the peptide treated cells (30 μM) to DMSO vehicle control treated cells. The results are shown in the columns “ME-180 HIF Reporter EC50 (μM) −24 hr normoxia” and “18 h Avg % max inhibition at top conc (HIF Rptr-24 hrsnormoxia) (μM)” of Table 6.

Structure (SMILES) | 18 h Avg % max inhibition at top conc (HIF Rptr-24 hrs normoxia) (μM) | EC50 [µM]
CCCC[C@H](NC(=O)[C@H](C)NC(=O)[C@@H](NC(=O)[C@H](CCC(=O)O)NC(=O)[C@H](CCC(=O)O)NC(=O)[C@H](CC(=O)O)NC(=O)[C@@H](NC(=O)[C@H](Cc1ccccc1)NC(C)=O)[C@@H](C)CC)C(C)C)C(=O)N[C@@]1(C)CCCC=CCCC[C@@](C)(C(=O)N[C@@H](CCCC)C(=O)N[C@@H](C)C(=O)N[C@@H](CC(C)C)C(=O)N[C@@H](CC(=O)O)C(=O)N[C@@H](CCCNC(=N)N)C(=O)N[C@H](C(N)=O)[C@@H](C)CC)NC(=O)[C@H]([C@@H](C)CC)NC(=O)[C@H](C(C)C)NC(=O)[C@H](CC(C)C)NC1=O [SP-15] (Ac-FIDEEVA[Nle][S5]LVI[S5][Nle]ALDRI-NH2; staple 9-13) | ++++ (≥50: ++++) | ≤ 5
CCCC[C@H](NC(=O)[C@H](CC(C)C)NC(=O)[C@@H](NC(=O)[C@H](CCC(=O)O)NC(=O)[C@H](CCC(=O)O)NC(=O)[C@H](CC(=O)O)NC(=O)[C@@H](NC(=O)[C@H](Cc1ccccc1)NC(C)=O)[C@@H](C)CC)C(C)C)C(=O)N[C@@]1(C)CCCC=CCCC[C@@](C)(C(=O)N[C@@H](CCCC)C(=O)N[C@@H](C)C(=O)N[C@@H](CC(C)C)C(=O)N[C@@H](CC(=O)O)C(=O)N[C@@H](CCCNC(=N)N)C(N)=O)NC(=O)[C@H]([C@@H](C)CC)NC(=O)[C@H](C(C)C)NC(=O)[C@H](CC(C)C)NC1=O [SP-27] (Ac-FIDEEVL[Nle][S5]LVI[S5][Nle]ALDR-NH2; staple 9-13) | ++++ (≥50: ++++) | 5 to 15
CCCC[C@H](NC(=O)[C@H](CC(C)C)NC(=O)[C@@H](NC(=O)[C@H](CCC(=O)O)NC(=O)[C@H](CCC(=O)O)NC(=O)[C@H](C)NC(=O)[C@@H](NC(=O)[C@H](Cc1ccccc1)NC(C)=O)[C@@H](C)CC)C(C)C)C(=O)N[C@@]1(C)CCCC=CCCC[C@@](C)(C(=O)N[C@@H](CCCC)C(=O)N[C@@H](C)C(=O)N[C@@H](CC(C)C)C(=O)N[C@@H](CC(=O)O)C(=O)N[C@@H](CCCNC(=N)N)C(=O)N[C@H](C(N)=O)[C@@H](C)CC)NC(=O)[C@H]([C@@H](C)CC)NC(=O)[C@H](C(C)C)NC(=O)[C@H](CC(C)C)NC1=O [SP-11] (Ac-FIAEEVL[Nle][S5]LVI[S5][Nle]ALDRI-NH2; staple 9-13) | ++++ (≥50: ++++) | 5 to 15
CCCC[C@H](NC(=O)[C@H](CC(C)C)NC(=O)[C@@H](NC(=O)[C@H](CCC(=O)O)NC(=O)[C@H](CCC(=O)O)NC(=O)[C@H](CC(=O)O)NC(=O)[C@@H](NC(=O)[C@H](CCC(=O)O)NC(C)=O)[C@@H](C)CC)C(C)C)C(=O)N[C@@]1(C)CCCC=CCCC[C@@](C)(C(=O)N[C@@H](CCCC)C(=O)N[C@@H](C)C(=O)N[C@@H](CC(C)C)C(=O)N[C@@H](CC(=O)O)C(=O)N[C@@H](CCCNC(=N)N)C(=O)N[C@H](C(N)=O)[C@@H](C)CC)NC(=O)[C@H]([C@@H](C)CC)NC(=O)[C@H](C(C)C)NC(=O)[C@H](CC(C)C)NC1=O [SP-30] (Ac-EIDEEVL[Nle][S5]LVI[S5][Nle]ALDRI-NH2; staple 9-13) | ++ (≤10 but <25: ++) | > 30
CCCC[C@H](NC(=O)[C@H](CC(C)C)NC(=O)[C@@H](NC(=O)[C@H](CCC(=O)O)NC(=O)[C@H](CCC(=O)O)NC(=O)[C@H](CC(=O)O)NC(=O)[C@@H](NC(=O)[C@H](Cc1ccccc1)NC(C)=O)[C@@H](C)CC)C(C)C)C(=O)N[C@@]1(C)CCCC=CCCC[C@@](C)(C(=O)N[C@@H](CCCC)C(=O)N[C@@H](C)C(=O)N[C@@H](CC(C)C)C(=O)N[C@@H](CC(=O)O)C(=O)N[C@@H](CCCNC(=N)N)C(=O)N[C@H](C(N)=O)[C@@H](C)CC)NC(=O)[C@H]([C@@H](C)CC)NC(=O)[C@H](CO)NC(=O)[C@H](CC(C)C)NC1=O [SP-52] (Ac-FIDEEVL[Nle][S5]LSI[S5][Nle]ALDRI-NH2; staple 9-13) | ++++ (≥50: ++++) | 15 to 30
CCCC[C@H](NC(=O)[C@H](CC(C)C)NC(=O)[C@H](CO)NC(=O)[C@H](CCC(=O)O)NC(=O)[C@H](CCC(=O)O)NC(=O)[C@H](CC(=O)O)NC(=O)[C@@H](NC(=O)[C@H](Cc1ccccc1)NC(C)=O)[C@@H](C)CC)C(=O)N[C@@]1(C)CCCC=CCCC[C@@](C)(C(=O)N[C@@H](CCCC)C(=O)N[C@@H](C)C(=O)N[C@@H](CC(C)C)C(=O)N[C@@H](CC(=O)O)C(=O)N[C@@H](CCCNC(=N)N)C(=O)N[C@H](C(N)=O)[C@@H](C)CC)NC(=O)[C@H]([C@@H](C)CC)NC(=O)[C@H](C(C)C)NC(=O)[C@H](CC(C)C)NC1=O [SP-48] (Ac-FIDEESL[Nle][S5]LVI[S5][Nle]ALDRI-NH2; staple 9-13) | +++ (≤25 but <50: +++) | 15 to 30
CCCC[C@H](NC(=O)[C@H](CC(C)C)NC(=O)[C@@H](NC(=O)[C@H](CCC(=O)O)NC(=O)[C@H](CCC(=O)O)NC(=O)[C@H](CC(=O)O)NC(=O)[C@@H](NC(=O)[C@H](Cc1ccccc1)NC(C)=O)[C@@H](C)CC)C(C)C)C(=O)N[C@@]1(C)CCCC=CCCC[C@@](C)(C(=O)N[C@@H](CCCC)C(=O)N[C@@H](CCC(=O)O)C(=O)N[C@@H](CC(C)C)C(=O)N[C@@H](CC(=O)O)C(=O)N[C@@H](CCCNC(=N)N)C(=O)N[C@H](C(N)=O)[C@@H](C)CC)NC(=O)[C@H]([C@@H](C)CC)NC(=O)[C@H](C(C)C)NC(=O)[C@H](CC(C)C)NC1=O [SP-39] (Ac-FIDEEVL[Nle][S5]LVI[S5][Nle]ELDRI-NH2; staple 9-13) | +++ (≤25 but <50: +++) | 15 to 30
CCCC[C@H](NC(=O)[C@H](CC(C)C)NC(=O)[C@@H](NC(=O)[C@H](CCC(=O)O)NC(=O)[C@H](CCC(=O)O)NC(=O)[C@H](CC(=O)O)NC(=O)[C@@H](NC(=O)[C@H](Cc1ccccc1)NC(C)=O)[C@@H](C)CC)C(C)C)C(=O)N[C@@]1(C)CCCC=CCCC[C@@](C)(C(=O)N[C@@H](CCCC)C(=O)N[C@@H](C)C(=O)N[C@@H](CC(C)C)C(=O)N[C@@H](CC(=O)O)C(=O)N[C@@H](CCCNC(=N)N)C(=O)N[C@H](C(=O)N[C@@H](CCC(=O)O)C(N)=O)[C@@H](C)CC)NC(=O)[C@H]([C@@H](C)CC)NC(=O)[C@H](C(C)C)NC(=O)[C@H](CC(C)C)NC1=O [SP-43] (Ac-FIDEEVL[Nle][S5]LVI[S5][Nle]ALDRIE-NH2; staple 9-13) | +++ (≤25 but <50: +++) | > 30
CCCC[C@H](NC(=O)[C@H](CC(C)C)NC(=O)[C@@H](NC(=O)[C@H](CCC(=O)O)NC(=O)[C@H](CCC(=O)O)NC(=O)[C@H](CC(=O)O)NC(=O)[C@@H](NC(=O)[C@H](Cc1ccccc1)NC(=O)[C@H](CC(=O)O)NC(C)=O)[C@@H](C)CC)C(C)C)C(=O)N[C@@]1(C)CCCC=CCCC[C@@](C)(C(=O)N[C@@H](CCCC)C(=O)N[C@@H](C)C(=O)N[C@@H](CC(C)C)C(=O)N[C@@H](CC(=O)O)C(=O)N[C@@H](CCCNC(=N)N)C(=O)N[C@H](C(N)=O)[C@@H](C)CC)NC(=O)[C@H]([C@@H](C)CC)NC(=O)[C@H](C(C)C)NC(=O)[C@H](CC(C)C)NC1=O [SP-29] (Ac-DFIDEEVL[Nle][S5]LVI[S5][Nle]ALDRI-NH2; staple 10-14) | ++ (≤10 but <25: ++) | > 30
CCCC[C@H](NC(=O)[C@H](CC(C)C)NC(=O)[C@@H](NC(=O)[C@H](CCC(=O)O)NC(=O)[C@H](CCC(=O)O)NC(=O)[C@H](CC(=O)O)NC(=O)[C@@H](NC(=O)[C@H](Cc1ccccc1)NC(C)=O)[C@@H](C)CC)C(C)C)C(=O)N[C@@]1(C)CCCC=CCCC[C@@](C)(C(=O)N[C@@H](CCCC)C(=O)N[C@@H](C)C(=O)N[C@@H](CC(C)C)C(=O)N[C@@H](CC(=O)O)C(=O)N[C@@H](CCCNC(=N)N)C(=O)N[C@@H](CCC(=O)O)C(N)=O)NC(=O)[C@H]([C@@H](C)CC)NC(=O)[C@H](C(C)C)NC(=O)[C@H](CC(C)C)NC1=O [SP-42] (Ac-FIDEEVL[Nle][S5]LVI[S5][Nle]ALDRE-NH2; staple 9-13) | ++ (≤10 but <25: ++) | > 30
